From US7217505B2, “Method for determining whether condition is symptom of metabolic syndrome” (Cortendo AB, priority 1998, dated 2007)
“And” between values parts separate entries of the source, which are not always exact repeats. Identical values can stand only once.

Tested on: autoproduction of cortisol
Test: dexamethasone inhibition test: serum cortisol the morning after low oral doses of dexamethasone
[1] = 'dangerously' belly fat individuals

## C[C@@H]1C[C@H]2[C@@H]3CCC4=CC(=O)C=C[C@]4(C)[C@@]3(F)[C@@H](O)C[C@]2(C)[C@@]1(O)C(=O)CO [dexamethasone]
[1]
  dose from which inhibition could be measured: 0.25 mg
  dose of maximum inhibition: 0.5 to 1 mg
About 20 individuals, most distinct difference at 0.5 mg
  critical doses with significant differences between belly fat and other individuals: 0.125 mg and 0.5 mg
Normal weight individuals and those with general overweight but without belly fatness
  dose at which inhibition of the autoproduction of cortisol was already obtained: 0.05 mg
Normal weight individuals and those with general overweight but without belly fatness (for a few also at 0.5 mg)
  dose of maximum inhibition of the autoproduction of cortisol: 1 mg
